Molecular target: T1, full-length human BTK (Homo sapiens, UniProt Q06187)
T1 construct: 2.5× stocks of full-length human BTK (08-080) from CarnaBio USA, Inc; purchased CarnaBio USA, Inc., Natick, Mass; 08-080
Experiment: BTK IC50 Enzyme Assay (Assay A), microfluidic off-chip mobility shift kinase assay
Type: biochemical
Settings: kinKDR peptide substrate, 90 min at 27° C.
Experimental: BTK IC50 Enzyme Assay (Assay A)
The following describes a microfluidic, off-chip mobility shift kinase assay used to measure inherent potency of compounds against BTK enzyme.
2.5× stocks of full-length human BTK (08-080) from CarnaBio USA, Inc., Natick, Mass., 1.6×ATP and appropriate kinKDR peptide substrate (FITC-AHA-EEPLYWSFPAKKK10 NH2) were prepared in kinase reaction buffer consisting of 25 mM MgCl2, 0.015% Brij-35 (30%), 100 mM Hepes, pH 7.5, and 10 mM DTT.
5 uL of enzyme buffer and 7.5 uL of ATP/kinKDR peptide substrate mix were added to Matrix (#115304) 384-well, sterile, polypropylene plates (Thermo Fisher Scientific, 15 Hudson, N.H.) with 125 nL of serially diluted compounds prepared in 100% DMSO, and incubated for 90 min. at 27° C. Following the incubation period, reactions were stopped by adding 60 uL stop buffer consisting of 100 mM Hepes, pH 7.5, 0.015% Brij-35 (30%), 0.277% Coating Reagent #3 (Caliper Life Sciences, Mountain View, Calif.), 5% DMSO. Stopped reactions were monitored at −2 PSI, −3000 V/−700 V in a LabChip 3000 plate 20 reader from Caliper Life Sciences, a PerkinElmer Company (Hopkinton, Mass.), and the activity was measured by off-chip mobility shift assay measuring the charge/mass difference between substrate and product resulting from peptide phosphorilation. IC50 and efficacy were determined by plotting log [Inhibitor] vs. % Activity in GeneData Screener (Basel, Switzerland).

T1 sequence (Q06187 whole entry): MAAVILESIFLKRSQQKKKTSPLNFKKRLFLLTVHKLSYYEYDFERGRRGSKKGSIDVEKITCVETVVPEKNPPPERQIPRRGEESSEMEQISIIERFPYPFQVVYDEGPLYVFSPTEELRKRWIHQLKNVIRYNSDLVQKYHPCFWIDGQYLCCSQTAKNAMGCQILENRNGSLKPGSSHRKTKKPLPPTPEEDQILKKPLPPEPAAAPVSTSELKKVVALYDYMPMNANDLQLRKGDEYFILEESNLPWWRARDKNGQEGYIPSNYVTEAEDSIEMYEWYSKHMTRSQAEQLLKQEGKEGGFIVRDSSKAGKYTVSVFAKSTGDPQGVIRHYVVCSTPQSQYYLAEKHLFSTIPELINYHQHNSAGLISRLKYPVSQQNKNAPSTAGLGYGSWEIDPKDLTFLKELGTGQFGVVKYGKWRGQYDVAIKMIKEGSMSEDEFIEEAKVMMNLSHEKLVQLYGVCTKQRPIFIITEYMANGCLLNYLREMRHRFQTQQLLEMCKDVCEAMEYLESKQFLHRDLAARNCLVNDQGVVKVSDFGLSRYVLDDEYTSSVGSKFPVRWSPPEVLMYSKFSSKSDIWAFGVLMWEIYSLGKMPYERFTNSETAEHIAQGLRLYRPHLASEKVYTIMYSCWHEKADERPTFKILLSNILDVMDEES

| Structure (SMILES) | IC50 [nM] |
| --- | --- |
| C=CC(=O)N1CCC(Cn2ccc3ncnc(Oc4ccc(Oc5ccccc5)cc4)c32)C1 (stereo not drawn) [Compound 29, 1-(3-((4-(4-phenoxyphenoxy)-5H-pyrrolo[3,2-d]pyrimidin-5-yl)methyl)pyrrolidin-1-yl)prop-2-en-1-one] | < 100 |
| C=CC(=O)N1CC(n2ccc3ncnc(Oc4ccc(Oc5ccc(F)cc5)cc4)c32)C1 [Compound 27, 1-(3-(4-(4-(4-fluorophenoxy)phenoxy)-5H-pyrrolo[3,2-d]pyrimidin-5-yl)azetidin-1-yl)prop-2-en-1-one] | < 100 |
| C=CC(=O)N1CC2(CC(n3ccc4ncnc(Oc5ccc(Oc6ccccc6)cc5)c43)C2)C1 [Compound 28, 1-(6-(4-(4-phenoxyphenoxy)-5H-pyrrolo[3,2-d]pyrimidin-5-yl)-2-azaspiro[3.3]heptan-2-yl)prop-2-en-1-one] | < 100 |
| CN(C)C/C=C/C(=O)N1CC[C@H](n2ccc3ncnc(Oc4ccc(Oc5ccccc5)cc4)c32)C1 [Compound 18, (S,E)-4-(dimethylamino)-1-(3-(4-(4-phenoxyphenoxy)-5H-pyrrolo[3,2-d]pyrimidin-5-yl)pyrrolidin-1-yl)but-2-en-1-one] | < 100 |
| N#CNC(=O)N1CCC(n2ccc3ncnc(Oc4ccc(Oc5ccccc5)cc4)c32)CC1 [Compound 57, N-cyano-4-(4-(4-phenoxyphenoxy)-5H-pyrrolo[3,2-d]pyrimidin-5-yl)piperidine-1-carboxamide] | 100 to 1000 |
| C=CC(=O)N1CCC(n2ccc3ncnc(-c4cccc(Oc5ccccc5)c4)c32)CC1 [Compound 50, 1-(4-(4-(3-phenoxyphenyl)-5H-pyrrolo[3,2-d]pyrimidin-5-yl)piperidin-1-yl)prop-2-en-1-one] | > 5000 |
| CN(C)C/C=C/C(=O)N1CCC(n2ccc3ncnc(Oc4ccc(Oc5ccccc5)cc4)c32)CC1 [Compound 1, (E)-4-(dimethylamino)-1-(4-(4-(4-phenoxyphenoxy)-5H-pyrrolo[3,2-d]pyrimidin-5-yl)piperidin-1-yl)but-2-en-1-one] | < 100 |
| C=CC(=O)N1CCC(Cn2ccc3ncnc(-c4ccc(Oc5ccccc5)cc4)c32)CC1 [Compound 47, 1-(4-((4-(4-phenoxyphenyl)-5H-pyrrolo[3,2-d]pyrimidin-5-yl)methyl)piperidin-1-yl)prop-2-en-1-one] | > 5000 |
| C=CC(=O)N[C@H]1C[C@H](n2ncc3ncnc(Oc4ccc(Oc5ccccc5)cc4)c32)C1 [Compound 21, N-((1r,3r)-3-(7-(4-phenoxyphenoxy)-1H-pyrazolo[4,3-d]pyrimidin-1-yl)cyclobutyl)acrylamide] | < 100 |
| C=CC(=O)N[C@H]1C[C@@H](n2ncc3ncnc(Oc4ccc(Oc5ccccc5)cc4)c32)C1 [Compound 11, N-((1s,3s)-3-(7-(4-phenoxyphenoxy)-1H-pyrazolo[4,3-d]pyrimidin-1-yl)cyclobutyl)acrylamide] | < 100 |
| C=CC(=O)N1CC(n2ccc3ncc(-c4ccc(Oc5ccccc5)cc4)cc32)C1 [Compound 4, 1-(3-(6-(4-phenoxyphenyl)-1H-pyrrolo[3,2-b]pyridin-1-yl)azetidin-1-yl)prop-2-en-1-one] | < 100 |
| C=CC(=O)N1CCC(Cn2ccc3ncnc(Oc4ccc(Oc5ccccc5)cc4)c32)CC1 [Compound 37, 1-(4-((4-(4-phenoxyphenoxy)-5H-pyrrolo[3,2-d]pyrimidin-5-yl)methyl)piperidin-1-yl)prop-2-en-1-one] | 100 to 1000 |
| CN(C)C/C=C/C(=O)N1CC(n2ccc3ncnc(Oc4ccc(Oc5ccccc5)cc4)c32)C1 [Compound 19, (E)-4-(dimethylamino)-1-(3-(4-(4-phenoxyphenoxy)-5H-pyrrolo[3,2-d]pyrimidin-5-yl)azetidin-1-yl)but-2-en-1-one] | < 100 |
| C=CC(=O)N1CC(n2ccc3ncnc(Oc4cnn(Cc5ccccc5)c4)c32)C1 [Compound 43, 1-(3-(4-((1-benzyl-1H-pyrazol-4-yl)oxy)-5H-pyrrolo[3,2-d]pyrimidin-5-yl)azetidin-1-yl)prop-2-en-1-one] | 1000 to 5000 |
| C=CC(=O)N[C@H]1CC[C@H](n2ccc3ncnc(Oc4ccc(Oc5ccccc5)cc4)c32)CC1 [Compound 39, N-(trans-4-(4-(4-phenoxyphenoxy)-5H-pyrrolo[3,2-d]pyrimidin-5-yl)cyclohexyl)acrylamide] | 100 to 1000 |
| C=CC(=O)N1CC(n2ccc3ncnc(Oc4ccc(OCc5ccccc5)cc4)c32)C1 [Compound 16, 1-(3-(4-(4-(benzyloxy)phenoxy)-5H-pyrrolo[3,2-d]pyrimidin-5-yl)azetidin-1-yl)prop-2-en-1-one] | < 100 |
| C=CC(=O)N1CCCC(Cn2ccc3ncnc(-c4cccc(Oc5ccccc5)c4)c32)C1 (stereo not drawn) [Compound 44, 1-(3-((4-(3-phenoxyphenyl)-5H-pyrrolo[3,2-d]pyrimidin-5-yl)methyl)piperidin-1-yl)prop-2-en-1-one] | 1000 to 5000 |

| Structure (SMILES) | IC50 [nM] |
| --- | --- |
| N#CN1CCCC(Cn2ccc3ncnc(Oc4ccc(Oc5ccccc5)cc4)c32)C1 (stereo not drawn) [Compound 63, 3-[[4-(4-phenoxyphenoxy)-5H-pyrrolo[3,2-d]pyrimidin-5-yl]methyl]piperidine-1-carbonitrile] | > 5000 |
| N#CN1CC(n2ccc3ncnc(Oc4ccc(Oc5ccccc5)cc4)c32)C1 [Compound 68, 3-[4-(4-phenoxyphenoxy)-5H-pyrrolo[3,2-d]pyrimidin-5-yl]azetidine-1-carbonitrile] | 1000 to 5000 |
| CN(C)C/C=C/C(=O)N1CCC(n2ncc3ncnc(Oc4ccc(Oc5ccccc5)cc4)c32)CC1 [Compound 14, (E)-4-(dimethylamino)-1-(4-(7-(4-phenoxyphenoxy)-1H-pyrazolo[4,3-d]pyrimidin-1-yl)piperidin-1-yl)but-2-en-1-one] | < 100 |
| C/C=C/C(=O)N1CC(n2ccc3ncnc(Oc4ccc(Oc5ccccc5)cc4)c32)C1 [Compound 38, (E)-1-(3-(4-(4-phenoxyphenoxy)-5H-pyrrolo[3,2-d]pyrimidin-5-yl)azetidin-1-yl)but-2-en-1-one] | 100 to 1000 |
| CN(C#N)[C@H]1CC[C@H](n2ccc3ncnc(Oc4ccc(Oc5ccccc5)cc4)c32)CC1 [Compound 70, (1R,4R)—N-cyano-N-methyl-4-[4-(4-phenoxyphenoxy)-5H-pyrrolo[3,2-d]pyrimidin-5-yl]cyclohexan-1-amine] | 100 to 1000 |
| N#CN1CC2(CC(n3ccc4ncnc(Oc5ccc(Oc6ccccc6)cc5)c43)C2)C1 [Compound 69, 6-[4-(4-phenoxyphenoxy)-5H-pyrrolo[3,2-d]pyrimidin-5-yl]-2-azaspiro[3.3]heptane-2-carbonitrile] | 1000 to 5000 |
| C=CC(=O)N1CC[C@@H](n2ccc3ncnc(Oc4ccc(Oc5ccccc5)cc4)c32)C1 [Compound 34, (R)-1-(3-(4-(4-phenoxyphenoxy)-5H-pyrrolo[3,2-d]pyrimidin-5-yl)pyrrolidin-1-yl)prop-2-en-1-one] | 100 to 1000 |
| C=CC(=O)N1CCC(Cn2ccc3ncnc(-c4cccc(Oc5ccccc5)c4)c32)CC1 [Compound 45, 1-(4-((4-(3-phenoxyphenyl)-5H-pyrrolo[3,2-d]pyrimidin-5-yl)methyl)piperidin-1-yl)prop-2-en-1-one] | 1000 to 5000 |
| CC(C)=CC(=O)N1CC(n2ccc3ncnc(Oc4ccc(Oc5ccccc5)cc4)c32)C1 [Compound 49, 3-methyl-1-(3-(4-(4-phenoxyphenoxy)-5H-pyrrolo[3,2-d]pyrimidin-5-yl)azetidin-1-yl)but-2-en-1-one] | > 5000 |
| C=CC(=O)N[C@H]1C[C@H](n2ccc3ncnc(Oc4ccc(Oc5ccccc5)cc4)c32)C1 [Compound 8, N-(trans-3-(4-(4-phenoxyphenoxy)-5H-pyrrolo[3,2-d]pyrimidin-5-yl)cyclobutyl)acrylamide] | < 100 |
| N#CN1CC[C@@H](n2ccc3ncnc(Oc4ccc(Oc5ccc(F)cc5F)cc4)c32)C1 [Compound 75] | > 5000 |
| C=CC(=O)N1CC[C@H]1Cn1ccc2ncnc(Oc3ccc(Oc4ccccc4)cc3)c21 [Compound 25, (S)-1-(2-((4-(4-phenoxyphenoxy)-5H-pyrrolo[3,2-d]pyrimidin-5-yl)methyl)azetidin-1-yl)prop-2-en-1-one] | < 100 |
| C=CC(=O)N1CC[C@H](n2ccc3ncnc(Oc4ccc(Oc5ccccc5)cc4)c32)C1 [Compound 5, (S)-1-(3-(4-(4-phenoxyphenoxy)-5H-pyrrolo[3,2-d]pyrimidin-5-yl)pyrrolidin-1-yl)prop-2-en-1-one] | < 100 |
| CN(C)C/C=C/C(=O)N1CC(n2ccc3ncc(-c4ccc(Oc5ccccc5)cc4)nc32)C1 [Compound 24, (E)-4-(dimethylamino)-1-(3-(3-(4-phenoxyphenyl)-5H-pyrrolo[2,3-b]pyrazin-5-yl)azetidin-1-yl)but-2-en-1-one] | < 100 |
| N#CN1CCC(n2ccc3ncnc(Oc4ccc(Oc5ccccc5)cc4)c32)CC1 [Compound 56, 4-(4-(4-phenoxyphenoxy)-5H-pyrrolo[3,2-d]pyrimidin-5-yl)piperidine-1-carbonitrile] | 1000 to 5000 |
| C=CC(=O)N1CCCC(Cn2ccc3ncnc(-c4ccc(Oc5ccccc5)cc4)c32)C1 (stereo not drawn) [Compound 48, 1-(3-((4-(4-phenoxyphenyl)-5H-pyrrolo[3,2-d]pyrimidin-5-yl)methyl)piperidin-1-yl)prop-2-en-1-one] | > 5000 |
